Where “and” joins values, the source holds several entries; their conditions need not be identical. Equal entries are not always repeated. Entries after “also recorded” stand apart in the source; their conditions may differ. Where two headings read alike, the source gives them in different places.
Assay: Pharmacokinetic experiments in rats (IV, oral suspension, oral solution)
Assay type: in vivo
Settings: rat; for bioavailability: adjusted for dose
Experimental: The oral suspension formulation was prepared by suspending the test article in 5% PEG-200/95% of a 0.5% solution of methylcellulose. The concentration of the test article was such that a dosing volume of 10 mL/kg delivered the intended dose level. The oral solution formulations of NVX-144 and NVX-412 were prepared by dissolving the test article in 10% by volume dimethyl acetamide, followed by 60% by volume PEG-400, and then adding slowly a solution of 30% Captisol® in 50 mM lactic acid to provide the remaining 30% of volume. The concentration of the test article was such that a dosing volume of 10 mL/kg delivered the intended dose level. The IV formulation of NVX-412 was prepared by dissolving the test article in 10% by volume dimethyl acetamide, followed by 10% by volume PEG-400, and then adding slowly a solution of 10% Captisol® in 50 mM lactic acid to provide the remaining 80% of volume. The concentration of the test articles was such that a dosing volume of 2.5 mL/kg delivered the intended dose level. The doses administered were based on the body weight of each animal taken shortly before dosing. The formulations were used immediately after preparation.
A total of 15 rats were assigned to the study. Five groups of three male rats each comprised the study. Each group was treated once by oral gavage or intravenous injection via the tail vein as specified in Table 3 below.
The animals were fasted overnight prior to dosing and the feed returned approximately 2 hours post-dosing. The dose for each animal was based on the most recent body weight. Oral doses were administered by gavage. Animals received 10 mL/kg per single oral dose. Intravenous doses were administered by tail vein injection. The dose for each animal was based on the most recent body weight. Animals were dosed at 2.5 mL/kg per single intravenous dose.
Blood was collected from the animals in Groups 1 through 5 for pharmacokinetic analysis. Approximately 0.3 mL of blood was collected in potassium EDTA tubes via the orbital plexus at four time points (30 minutes, 1 hour, 4 hours, and 8 hours post-dose) from each rat treated by the oral route, and the blood samples were processed to prepare plasma. Blood was collected at four time points (5 minutes, 30 minutes, 1 hour, and 2 hours post-dose) from each rat treated by the intravenous route, and the blood samples were processed to prepare plasma. Animals were terminated (without necropsy) following their final sample collection.
The whole blood samples were centrifuged (˜1500×g) for a minimum of 10 minutes in a refrigerated centrifuge (set at ˜5° C.). Plasma was prepared and transferred within 30 minutes of blood collection/centrifugation to appropriately labeled tubes. The tubes were then frozen and stored in the dark at ≦−70° C. until analysis. The plasma samples were analyzed by LC-MS/MS to determine the plasma concentrations of NVX-144 and NVX-412. Pharmacokinetic analysis of the plasma concentration data was conducted using non-compartmental analysis with WinNonlin Version 4.1.

[1] = male, plasma, po, 20 mg/kg, Group 5, PO-Solution 20 mg/kg, individual animals
[2] = Group 3, PO-Suspension 20 mg/kg, Mean N=2
[3] = Group 3, PO-Suspension 20 mg/kg, individual animals
[4] = Group 5, PO-Solution 20 mg/kg, Mean N=3
[5] = Group 5, PO-Solution 20 mg/kg, individual animals
[6] = IV 5 mg/kg, individual animals, 5 mg/kg

O=C(NNc1nc2cc(F)ccc2n2cccc12)c1cnccn1.O=C(O)C(=O)O [NVX-412, N′-(7-fluoropyrrolo[1,2a]quinoxalin-4-yl)pyrazine-2-carbohydrazide oxalic acid co-crystal]
bioavailability (male, plasma, po, 20 mg/kg, Group 5, PO-Solution 20 mg/kg, Mean N=3, versus mean IV AUCINF, read-out: Bioavailability): 43.5% | AUC [1]: 2390 ng·h/mL | AUC(0-inf) [1]: 2400 ng·h/mL | Cmax (male, plasma, po, 20 mg/kg, Group 5, PO-Solution 20 mg/kg, individual animals, read-out: Cmax): 732 ng/mL | half-life (male, plasma, po, 20 mg/kg, Group 5, PO-Solution 20 mg/kg, individual animals, read-out: T ½ (converted)): 1.18 h | Tmax (male, plasma, po, 20 mg/kg, Group 5, PO-Solution 20 mg/kg, individual animals, read-out: Tmax): 0.5 to 1 h | bioavailability (male, plasma, po, 20 mg/kg, Group 5, PO-Solution 20 mg/kg, individual animals, versus mean IV AUCINF, read-out: Bioavailability): 45.7% | plasma concentration (Group 3, PO-Suspension 20 mg/kg, 0.5 hr, individual animals): 386.99 ng/mL and 573.34 ng/mL | plasma concentration (Group 3, PO-Suspension 20 mg/kg, 1 hr, individual animals): 464.23 ng/mL and 584.12 ng/mL | plasma concentration (Group 3, PO-Suspension 20 mg/kg, 4 hr, individual animals): 181.80 ng/mL and 249.34 ng/mL | plasma concentration (Group 3, PO-Suspension 20 mg/kg, 8 hr, individual animals): 13.07 ng/mL and BLQ (BLQ = Below the Limit of Quantitation <5 ng/mL) and 5.48 ng/mL | AUC % Extrap [2]: 0.68% | AUCINF [2]: 2306.62 ng·h/mL | T ½ [2]: 1.15 h | Cmax (Group 3, PO-Suspension 20 mg/kg, Mean N=3): 524.61 ng/mL | AUC % Extrap [3]: 1.00% and 0.36% | AUCINF [3]: 2200.54 ng·h/mL | AUCall [3]: 1642.21 ng·h/mL and 2192.52 ng·h/mL | Cmax [3]: 464.23 ng/mL and 584.12 ng/mL | T ½ [3]: 1.02 h | bioavailability (Group 3, PO-Suspension 20 mg/kg, individual animals, versus mean IV AUCINF): 41.9% | plasma concentration (Group 5, PO-Solution 20 mg/kg, 0.5 hr, individual animals): 635.82 ng/mL and 509.37 ng/mL | plasma concentration (Group 5, PO-Solution 20 mg/kg, 1 hr, individual animals): 686.88 ng/mL and 489.07 ng/mL | plasma concentration (Group 5, PO-Solution 20 mg/kg, 4 hr, individual animals): 171.97 ng/mL and 298.24 ng/mL | plasma concentration (Group 5, PO-Solution 20 mg/kg, 8 hr, individual animals): 8.53 ng/mL and 5.14 ng/mL and 34.89 ng/mL | AUC % Extrap [4]: 1.73% | Cmax [4]: 642.71 ng/mL | T ½ [4]: 1.37 h | AUC % Extrap [5]: 0.61% and 0.34% and 4.24% | AUCINF [5]: 2139.39 ng·h/mL and 2322.68 ng·h/mL | AUCall [5]: 2132.13 ng·h/mL and 2224.16 ng·h/mL | Cmax [5]: 686.89 ng/mL and 509.37 ng/mL | T ½ [5]: 0.98 h and 1.96 h | Tmax [5]: 0.5 h | bioavailability (Group 5, PO-Solution 20 mg/kg, individual animals, versus mean IV AUCINF): 40.7% and 44.2% | plasma concentration (IV 5 mg/kg, 0.083 h, individual animals, 5 mg/kg): 1716.72 ng/mL and 2001.77 ng/mL | plasma concentration (IV 5 mg/kg, 0.5 h, individual animals, 5 mg/kg): 481.82 ng/mL and 461.19 ng/mL | plasma concentration (IV 5 mg/kg, 1 h, individual animals, 5 mg/kg): 278.84 ng/mL and 253.02 ng/mL | plasma concentration (IV 5 mg/kg, 2 h, individual animals, 5 mg/kg): 185.19 ng/mL and 143.93 ng/mL | AUC % Extrap (IV 5 mg/kg, Mean of 3): 18.74% | AUCINF (IV 5 mg/kg, Mean of 3, 5 mg/kg): 1314.5 ng·h/mL | Cl (IV 5 mg/kg, Mean of 3, 5 mg/kg): 63.43 mL/min/kg and 63.4273 mL/min/kg | Cmax (IV 5 mg/kg, Mean of 3, 5 mg/kg): 1842.5 ng/mL | T ½ (IV 5 mg/kg, Mean of 3, 5 mg/kg): 1.03 h | Vss (IV 5 mg/kg, Mean of 3, 5 mg/kg): 3.98512 L/kg | AUC % Extrap [6]: 18.44% and 22.68% and 15.1% | AUCINF [6]: 1349.72 ng·h/mL and 1277.84 ng·h/mL | AUCall [6]: 1043.56 ng·h/mL and 1084.89 ng·h/mL | Cl [6]: 61.7413 mL/min/kg and 65.2145 mL/min/kg | Cmax [6]: 1716.7 ng/mL and 2001.8 ng/mL | T ½ [6]: 1.15 h and 0.93 h | Vss [6]: 4.55297 L/kg and 3.44635 L/kg | oral absorption (administered as a solution or suspension): moderate | difference in oral absorption between NVX-412 and NVX-144 (dosed as a solution): no significant difference | oral absorption / bioavailability of NVX-412 over NVX-144 free base (dosed as a suspension): more bioavailable; also recorded: slight improvement

— US8058437B2, “(Pyrroloquinoxalinyl) pyrazinecarbohydrazide-oxalic acid co-crystal for treatment of cancer and other diseases” (Novelix Pharmaceuticals, Inc., priority 2008, dated 2011)
